Test results published in patent US20250248960A1, “Methods for Providing Rapid Relief of Motor Fluctuations in a Parkinson's Disease Patient” (priority 2012, published 2025).

System: Parkinson's disease patients
Experiment: Phase 2 study: plasma levodopa concentrations compared to UPDRS scores (off/on state)
Format: in vivo, human
Conditions: plasma levels vs UPDRS scores, FIG. 8
Procedure: The twenty four (24) patients treated in this study underwent serial evaluations of L-dopa plasma levels, motor response, and safety at each visit. The patients were administered the study drug in the OFF state with the serial evaluations starting prior to dosing and continuing for up to 180 minutes post-dose. Motor function was measured using a tapping test, the Unified Parkinson's Disease Rating Scale Part III (UPDRS III), and subjective evaluation of “meaningful” ON and OFF. Safety parameters monitored included pulmonary function, clinical laboratory data, EGCs, and vital signs (blood pressure, heart rate, and orthostatic blood pressure). This study was designed to measure the time, magnitude, and durability of pulmonary levodopa's effect on motor function, to evaluate the safety and tolerability of pulmonary levodopa in Parkinson's disease patients.
In FIG. 8, patient's plasma levodopa concentrations are being compared to UPDRS scores. UPDRS is a standard test for Parkinson's disease patients to test their response to drug treatment and their disease progression. […] As little as 200-400 ng/ml of levodopa plasma concentration makes the difference between being in the off state and being in the on state. […]

SMILES: N[C@@H](Cc1ccc(O)c(O)c1)C(=O)O [L-Dopa, levodopa]
- levodopa plasma concentration difference between being in the off state and being in the on state: 200 to 400 ng/mL
